Laboratory results from patent US12083137B2, “Triazole bisphosphonate geranylgeranyl diphosphate synthase inhibitors” (BOARD OF REGENTS OF THE UNIVERSITY OF NEBRASKA, priority 2017, dated 2024).
Like-named read-outs stand apart in the source and are kept apart here.

Key:
RPMI-8226 cells [1] = assay: Cellular protein geranylgeranylation: Rap1a immunoblot plus intracellular lambda light chain ELISA; assay type: cell-based, Human; conditions: 48 h; for Cellular LEC (lowest effective concentration): lowest concentration with visible unmodified Rap1a band and statistically significant increase in intracellular lambda light chain; for relative cellular activity (comparison in words): myeloma cells
Method: (§1) RPMI-8226 cells were incubated for 48 h in the presence or absence of lovastatin (Lov, 10 μM) or varying concentrations of the test compounds. Intracellular lambda light chain concentrations were determined via ELISA. Data are expressed as a percentage of control (mean±SD, n=3). The * denotes p<0.05 per unpaired two-tailed t-test.
The impact of substituents at the α-carbon of the compounds disclosed herein on cellular activity was assessed in myeloma cells. Impairment of cellular protein geranylgeranylation was determined via two methods: 1) ELISA for intracellular lambda light chain which is a marker for disruption of Rab GTPase geranyl-geranylation (FIGS. 1, 3, 5, 7) and 2) immunoblot analysis for unmodified Rap1a (a substrate of GGTase I) (FIGS. 2, 4, 6, 8). Lovastatin, an HMG-CoA reductase inhibitor, was included as a positive control. […] Next, the impact of the olefin stereochemistry on biological activity was determined.
Immunoblot analysis (FIG. 2, 4, 6, 8): Multiple myeloma cells were incubated (37° C. and 5% CO2) with test compounds for 48 hours in RPMI-1640 media containing 10% fetal bovine serum and penicillin-streptomycin. Whole cell lysate was obtained using RIPA buffer (0.15 M NaCl, 1% sodium deoxycholate, 0.1% SODS, 1% Triton (v/v) X-100, 0.05 M Tris HCl) containing protease and phosphatase inhibitors. Protein content was determined using the bicinchoninic acid (BCA) method (Pierce Chemical, Rockford, IL). Equivalent amounts of cell lysate were resolved by SODS-PAGE, transferred to polyvinylidene difluoride membrane, probed with the appropriate primary antibodies, and detected using HRP-linked secondary antibodies and Bio-Rad Clarity ECL Substrate Western blotting reagents per manufacturer's protocols.
(§2) Lambda light chain ELISA (FIG. 1, 3, 5, 7): Human lambda light chain kit (Bethyl Laboratories, Montgomery, TX) was used to quantify intracellular monoclonal protein levels of whole cell lysate. Lambda light chain levels were normalized to total protein levels (as determined by BCA).

Recombinant GGDPS = Recombinant GGDPS (Homo sapiens (Human), UniProt O95749); assay: GGDPS enzyme assay; assay type: biochemical; conditions: for Selectivity for GGDPS to FDPS: ratio FDPS IC50 / GGDPS IC50
Sequence of Recombinant GGDPS (O95749 whole entry): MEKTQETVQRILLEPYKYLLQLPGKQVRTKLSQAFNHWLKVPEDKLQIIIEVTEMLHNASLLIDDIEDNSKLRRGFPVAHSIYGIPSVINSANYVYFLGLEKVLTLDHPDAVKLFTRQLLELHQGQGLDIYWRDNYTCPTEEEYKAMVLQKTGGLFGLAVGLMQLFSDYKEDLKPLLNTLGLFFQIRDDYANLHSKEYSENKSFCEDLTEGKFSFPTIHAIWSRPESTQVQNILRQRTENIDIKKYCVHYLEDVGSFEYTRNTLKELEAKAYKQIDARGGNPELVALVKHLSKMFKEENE
Method: (§3) FIG. 9 GGDPS and FDPS enzyme assay data for compounds 19, 20, and 21. Each assay was performed in three independent experiments (R1, R2, R3) and each compound was tested in duplicate at each concentration.
(§4) Each assay was performed in three independent experiments (R1, R2, R3) and each compound was tested in duplicate at each concentration.
GGDPS Enzyme assay (FIG. 9, 10, 11): Recombinant GGDPS was obtained from MyBioSource (San Diego, CA). Recombinant enzyme (20 nM GGDPS) was incubated with assay buffer (50 mM Tris-HCl, pH 7.7, 20 mM MgCl2, 5 mM TCEP, 5 μg/mL BSA) and test compounds for 10 minutes at room temperature. The reaction was initiated by the addition of 10 μM FPP and 10 μM [^14C]-IPP and was carried out at 37° C. for 30 minutes. The reaction was stopped by the addition of saturated NaCl. Radiolabeled GGPP was extracted with n-butanol and counted via liquid scintillation counting. CompuSyn software (ComboSyn, Inc.) was used to analyze the concentration response curves and determine the IC50 values.

FDPS = FDPS (Homo sapiens (Human), UniProt P14324); assay: FDPS enzyme assay; assay type: biochemical
Sequence of FDPS (P14324 whole entry, species assumed): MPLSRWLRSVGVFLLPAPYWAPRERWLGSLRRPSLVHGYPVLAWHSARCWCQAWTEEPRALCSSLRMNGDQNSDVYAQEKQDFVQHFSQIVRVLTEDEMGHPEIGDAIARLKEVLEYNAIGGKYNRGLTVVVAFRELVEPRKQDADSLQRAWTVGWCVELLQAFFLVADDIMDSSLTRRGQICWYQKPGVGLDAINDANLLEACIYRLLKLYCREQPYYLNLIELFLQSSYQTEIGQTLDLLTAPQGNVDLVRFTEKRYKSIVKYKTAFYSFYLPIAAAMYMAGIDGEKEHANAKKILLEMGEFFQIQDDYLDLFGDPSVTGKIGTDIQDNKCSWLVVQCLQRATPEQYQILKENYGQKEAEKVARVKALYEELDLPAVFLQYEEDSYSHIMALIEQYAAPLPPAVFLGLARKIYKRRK
Method: as §3, §4

RPMI-8226 cells [2] = assay: Lambda light chain ELISA (intracellular lambda light chain, marker of Rab GTPase geranylgeranylation disruption); assay type: cell-based, Human; conditions: 48 h
Method: as §1, §2

[3] = 20 nM recombinant GGDPS, 10 μM FPP, 10 μM [14C]-IPP, 37° C. 30 minutes, read-out: GGDPS IC50

| IC50 (Recombinant GGDPS; [3]) [µM] | IC50 (FDPS; read-out: FDPS IC50) [µM] | specificity (selectivity) for GGDPS over FDPS (Recombinant GGDPS) | SMILES | Cellular LEC (lowest effective concentration) (RPMI-8226 cells [1]) [µM] | relative cellular activity (comparison in words) (RPMI-8226 cells [1]) | Selectivity for GGDPS to FDPS (Recombinant GGDPS) | IC50 (Recombinant GGDPS) [µM] | IC50 (FDPS) [µM] | relative GGDPS inhibitory activity in enzymatic assays (comparison in words) (Recombinant GGDPS) | improvement in cellular activity of POM-version versus corresponding salt 17 (RPMI-8226 cells [2]; FIG. 7, RPMI-8226 cells) | cellular potency of Z-isomer relative to the E-isomer 21 (RPMI-8226 cells [2]; FIG. 5, RPMI-8226 cells) |
| --- | --- | --- | --- | --- | --- | --- | --- | --- | --- | --- | --- |
| – | – | – | CC(C)=CCC/C(C)=C\CCn1cc(CC(C)(P(=O)([O-])[O-])P(=O)([O-])[O-])nn1.[Na+].[Na+].[Na+].[Na+] [Compound 17, Sodium (Z)-(1-(1-(4,8-dimethylnona-3,7-dien-1-yl)-1H-1,2,3-triazol-4-yl)propane-2,2-diyl)bis(phosphonate)] | 0.1 | – | >108 | 0.92 ± 0.089 | > 100 | – | – | – |
| – | – | – | CC(C)=CCCC(C)=CCCn1cc(CC(C)(P(=O)([O-])[O-])P(=O)([O-])[O-])nn1.[Na+].[Na+].[Na+].[Na+] [Compound 16, Sodium (1-(1-(4,8-dimethylnona-3,7-dien-1-yl)-1H-1,2,3-triazol-4-yl)propane-2,2-diyl)bis(phosphonate)] | 0.1 | – | 49 | 1.27 ± 0.303 | 62.2 ± 7.22 | very similar to the individual isomers | – | – |
| 0.1 ± 0.019 | 24.1 ± 3.15 | – | CC(C)=CCCC(C)=CCn1cc(CC(C)(P(=O)([O-])[O-])P(=O)([O-])[O-])nn1.[Na+].[Na+].[Na+].[Na+] [Compound 19, Sodium (1-(1-(3,7-dimethylocta-2,6-dien-1-yl)-1H-1,2,3-triazol-4-yl)propane-2,2-diyl)bis(phosphonate)] | 0.03 | – | 241 | – | – | more potent than its corresponding non-methylated analogue 31 | – | – |
| – | – | – | CC(C)=CCC/C(C)=C/CCn1cc(CC(C)(P(=O)([O-])[O-])P(=O)([O-])[O-])nn1.[Na+].[Na+].[Na+].[Na+] [Compound 18, Sodium (E)-(1-(1-(4,8-dimethylnona-3,7-dien-1-yl)-1H-1,2,3-triazol-4-yl)propane-2,2-diyl)bis(phosphonate)] | 5.0 | slightly more potent than the Z-isomer | 3.5 | 20.5 ± 2.3 | 71.4 ± 24.2 | – | – | – |
| 0.125 ± 0.027 | 43.1 ± 2.98 | at least 3.5 fold | CC(C)=CCC/C(C)=C/Cn1cc(CC(C)(P(=O)([O-])[O-])P(=O)([O-])[O-])nn1.[Na+].[Na+].[Na+].[Na+] [Compound 21, Sodium (E)-(1-(1-(3,7-dimethylocta-2,6-dien-1-yl)-1H-1,2,3-triazol-4-yl)propane-2,2-diyl)bis(phosphonate)] | 0.02 | – | 345 | – | – | – | – | – |
| – | – | – | CC(C)=CCC/C(C)=C\CCn1cc(CC(C)(P(=O)(OCOC(=O)C(C)(C)C)OCOC(=O)C(C)(C)C)P(=O)(OCOC(=O)C(C)(C)C)OCOC(=O)C(C)(C)C)nn1 [Compound 25, (Z)-(((1-(1-(4,8-dimethylnona-3,7-dien-1-yl)-1H-1,2,3-triazol-4-yl)propane-2,2-diyl)bis(oxo-15-phosphanetriyl))tetrakis(oxy))tetrakis(methylene) tetrakis(2,2-dimethylpropanoate)] | – | – | – | – | – | – | approximately 10 fold | – |
| 0.086 ± 0.022 | 59.6 ± 15 | – | CC(C)=CCC/C(C)=C\Cn1cc(CC(C)(P(=O)([O-])[O-])P(=O)([O-])[O-])nn1.[Na+].[Na+].[Na+].[Na+] [Compound 20, Sodium (Z)-(1-(1-(3,7-dimethylocta-2,6-dien-1-yl)-1H-1,2,3-triazol-4-yl)propane-2,2-diyl)bis(phosphonate)] | 0.025 | – | 693 | – | – | more potent than the E isomer 21 | – | approximately 50 fold |

| SMILES | IC50 (Recombinant GGDPS; [3]) [µM] | IC50 (FDPS; read-out: FDPS IC50) [µM] | specificity (selectivity) for GGDPS over FDPS (Recombinant GGDPS) | Cellular LEC (lowest effective concentration) (RPMI-8226 cells [1]) [µM] | relative cellular activity (comparison in words) (RPMI-8226 cells [1]) | Selectivity for GGDPS to FDPS (Recombinant GGDPS) | IC50 (Recombinant GGDPS) [µM] | IC50 (FDPS) [µM] | relative GGDPS inhibitory activity in enzymatic assays (comparison in words) (Recombinant GGDPS) | improvement in cellular activity of POM-version versus corresponding salt 17 (RPMI-8226 cells [2]; FIG. 7, RPMI-8226 cells) | cellular potency of Z-isomer relative to the E-isomer 21 (RPMI-8226 cells [2]; FIG. 5, RPMI-8226 cells) |
| --- | --- | --- | --- | --- | --- | --- | --- | --- | --- | --- | --- |
| CCC(Cc1cn(C/C=C(\C)CCC=C(C)C)nn1)(P(=O)(O)O)P(=O)(O)O [Compound 28] | 5.85 ± 1.3 | 94.3 ± 20.6 | – | 2.5 | less potent than either the parent compound 31 | 16 | – | – | – | – | – |
